Key:
Experiment in all cases: relative viability (nuclei count vs DMSO), 5 days (fraction); higher = more cells survive
A-427 = tested on: A-427
Procedure, shortened: (§1)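 One day after seeding in 1536-well plates, lung cancer cell lines were dosed by pin tool. Dosing was either single-drug or a fixed anchor-drug dose plus five library-drug doses (not always all listed) in √10 steps. After 5 days, nuclei were stained in one fix-and-stain step and counted on 4× images, and relative viability is the nuclei count of treated wells over that of vehicle wells, given as the median of duplicate plates.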

BEN = tested on: BEN
Procedure, shortened: as §1

EKVX = tested on: EKVX
Procedure, shortened: as §1

LC-2-ad = tested on: LC-2-ad
Procedure, shortened: as §1

LCLC-97TM1 = tested on: LCLC-97TM1
Procedure, shortened: as §1

LOU-NH91 = tested on: LOU-NH91
Procedure, shortened: as §1

LU99A = tested on: LU99A
Procedure, shortened: as §1

NCI-H1355 = tested on: NCI-H1355
Procedure, shortened: as §1

NCI-H1650 = tested on: NCI-H1650
Procedure, shortened: as §1

NCI-H1666 = tested on: NCI-H1666
Procedure, shortened: as §1

NCI-H1793 = tested on: NCI-H1793
Procedure, shortened: as §1

NCI-H1915 = tested on: NCI-H1915
Procedure, shortened: as §1

NCI-H1993 = tested on: NCI-H1993
Procedure, shortened: as §1

NCI-H2228 = tested on: NCI-H2228
Procedure, shortened: as §1

NCI-H2347 = tested on: NCI-H2347
Procedure, shortened: as §1

NCI-H23 = tested on: NCI-H23
Procedure, shortened: as §1

NCI-H460 = tested on: NCI-H460
Procedure, shortened: as §1

NCI-H520 = tested on: NCI-H520
Procedure, shortened: as §1

NCI-H650 = tested on: NCI-H650
Procedure, shortened: as §1

NCI-H838 = tested on: NCI-H838
Procedure, shortened: as §1

PC-3 [JPC-3] = tested on: PC-3 [JPC-3]
Procedure, shortened: as §1

RERF-LC-KJ = tested on: RERF-LC-KJ
Procedure, shortened: as §1

SW 1573 = tested on: SW 1573
Procedure, shortened: as §1

Question: Which relative viability (A-427; first compound 0.08 µM) does the source give for `CCCCCCCCCCCC1=C(O)C(=O)C=C(O)C1=O` [Embelin] + N=C(N)NC(=N)NCCc1ccccc1 [Phenformin] (partner 250 µM) here?
Answer: Its relative viability is 0.359.

Question: And the relative viability (A-427; first compound 0.8 µM)?
Answer: The relative viability was 0.411.

Question: And the relative viability (A-427; first compound 2.53 µM)?
Answer: Its relative viability is 0.328.

Question: And the relative viability (A-427; first compound 8 µM)?
Answer: Its relative viability is 0.363.

Question: And the relative viability (BEN; first compound 0.08 µM)?
Answer: The relative viability was 0.267.

Question: What about the relative viability (BEN; first compound 0.8 µM) of the same compound?
Answer: The relative viability was 0.285.

Question: What about the relative viability (BEN; first compound 2.53 µM) of the same compound?
Answer: The relative viability was 0.264.

Question: And the relative viability (BEN; first compound 8 µM)?
Answer: The relative viability was 0.263.

Question: And the relative viability (EKVX; first compound 0.08 µM)?
Answer: Its relative viability is 0.245.

Question: What about the relative viability (EKVX; first compound 0.8 µM) of the same compound?
Answer: Its relative viability is 0.229.

Question: What about the relative viability (EKVX; first compound 2.53 µM) of the same compound?
Answer: Its relative viability is 0.205.

Question: What about the relative viability (EKVX; first compound 8 µM) of the same compound?
Answer: The relative viability was 0.247.

Question: What about the relative viability (LC-2-ad; first compound 0.08 µM) of the same compound?
Answer: Its relative viability is 0.608.

Question: And the relative viability (LC-2-ad; first compound 0.8 µM)?
Answer: Its relative viability is 0.772.

Question: What about the relative viability (LC-2-ad; first compound 2.53 µM) of the same compound?
Answer: The relative viability was 0.617.

Question: And the relative viability (LC-2-ad; first compound 8 µM)?
Answer: Its relative viability is 0.367.

Question: And the relative viability (LCLC-97TM1; first compound 0.08 µM)?
Answer: The relative viability was 0.452.

Question: And the relative viability (LCLC-97TM1; first compound 0.8 µM)?
Answer: Its relative viability is 0.432.

Question: And the relative viability (LCLC-97TM1; first compound 2.53 µM)?
Answer: Its relative viability is 0.465.

Question: And the relative viability (LCLC-97TM1; first compound 8 µM)?
Answer: Its relative viability is 0.469.

Question: What about the relative viability (LOU-NH91; first compound 0.08 µM) of the same compound?
Answer: The relative viability was 0.757.

Question: And the relative viability (LOU-NH91; first compound 0.8 µM)?
Answer: The relative viability was 0.895.

Question: And the relative viability (LOU-NH91; first compound 2.53 µM)?
Answer: Its relative viability is 0.566.

Question: And the relative viability (LOU-NH91; first compound 8 µM)?
Answer: Its relative viability is 0.492.

Question: What about the relative viability (LU99A; first compound 0.08 µM) of the same compound?
Answer: The relative viability was 0.856.

Question: And the relative viability (LU99A; first compound 0.8 µM)?
Answer: The relative viability was 0.951.

Question: What about the relative viability (LU99A; first compound 2.53 µM) of the same compound?
Answer: Its relative viability is 0.942.

Question: And the relative viability (LU99A; first compound 8 µM)?
Answer: Its relative viability is 0.757.

Question: What about the relative viability (NCI-H1355; first compound 0.08 µM) of the same compound?
Answer: Its relative viability is 0.482.

Question: And the relative viability (NCI-H1355; first compound 0.8 µM)?
Answer: Its relative viability is 0.535.

Question: And the relative viability (NCI-H1355; first compound 2.53 µM)?
Answer: Its relative viability is 0.442.

Question: And the relative viability (NCI-H1355; first compound 8 µM)?
Answer: Its relative viability is 0.392.

Question: What about the relative viability (NCI-H1650; first compound 0.08 µM) of the same compound?
Answer: Its relative viability is 0.434.

Question: And the relative viability (NCI-H1650; first compound 0.8 µM)?
Answer: Its relative viability is 0.558.

Question: And the relative viability (NCI-H1650; first compound 2.53 µM)?
Answer: Its relative viability is 0.485.

Question: What about the relative viability (NCI-H1650; first compound 8 µM) of the same compound?
Answer: The relative viability was 0.376.

Question: What about the relative viability (NCI-H1666; first compound 0.08 µM) of the same compound?
Answer: Its relative viability is 0.57.

Question: What about the relative viability (NCI-H1666; first compound 0.8 µM) of the same compound?
Answer: The relative viability was 0.631.

Question: And the relative viability (NCI-H1666; first compound 2.53 µM)?
Answer: Its relative viability is 0.507.

Question: What about the relative viability (NCI-H1666; first compound 8 µM) of the same compound?
Answer: The relative viability was 0.575.

Question: What about the relative viability (NCI-H1793; first compound 0.08 µM) of the same compound?
Answer: Its relative viability is 0.355.

Question: What about the relative viability (NCI-H1793; first compound 0.8 µM) of the same compound?
Answer: Its relative viability is 0.42.

Question: What about the relative viability (NCI-H1793; first compound 2.53 µM) of the same compound?
Answer: Its relative viability is 0.473.

Question: And the relative viability (NCI-H1793; first compound 8 µM)?
Answer: The relative viability was 0.352.

Question: And the relative viability (NCI-H1915; first compound 0.08 µM)?
Answer: The relative viability was 0.382.

Question: What about the relative viability (NCI-H1915; first compound 0.8 µM) of the same compound?
Answer: Its relative viability is 0.382.

Question: What about the relative viability (NCI-H1915; first compound 2.53 µM) of the same compound?
Answer: The relative viability was 0.364.

Question: And the relative viability (NCI-H1915; first compound 8 µM)?
Answer: Its relative viability is 0.411.

Question: And the relative viability (NCI-H1993; first compound 0.08 µM)?
Answer: The relative viability was 0.499.

Question: And the relative viability (NCI-H1993; first compound 0.8 µM)?
Answer: The relative viability was 0.542.

Question: What about the relative viability (NCI-H1993; first compound 2.53 µM) of the same compound?
Answer: Its relative viability is 0.489.

Question: What about the relative viability (NCI-H1993; first compound 8 µM) of the same compound?
Answer: The relative viability was 0.467.

Question: What about the relative viability (NCI-H2228; first compound 0.08 µM) of the same compound?
Answer: Its relative viability is 0.332.

Question: What about the relative viability (NCI-H2228; first compound 0.8 µM) of the same compound?
Answer: Its relative viability is 0.314.

Question: What about the relative viability (NCI-H2228; first compound 2.53 µM) of the same compound?
Answer: The relative viability was 0.403.

Question: And the relative viability (NCI-H2228; first compound 8 µM)?
Answer: Its relative viability is 0.309.

Question: What about the relative viability (NCI-H2347; first compound 0.08 µM) of the same compound?
Answer: The relative viability was 0.308.

Question: What about the relative viability (NCI-H2347; first compound 0.8 µM) of the same compound?
Answer: Its relative viability is 0.386.

Question: And the relative viability (NCI-H2347; first compound 2.53 µM)?
Answer: Its relative viability is 0.345.

Question: What about the relative viability (NCI-H2347; first compound 8 µM) of the same compound?
Answer: The relative viability was 0.377.

Question: What about the relative viability (NCI-H23; first compound 0.08 µM) of the same compound?
Answer: Its relative viability is 0.771.

Question: What about the relative viability (NCI-H23; first compound 0.8 µM) of the same compound?
Answer: Its relative viability is 0.753.

Question: And the relative viability (NCI-H23; first compound 2.53 µM)?
Answer: Its relative viability is 0.882.

Question: And the relative viability (NCI-H23; first compound 8 µM)?
Answer: The relative viability was 0.693.

Question: What about the relative viability (NCI-H460; first compound 0.08 µM) of the same compound?
Answer: Its relative viability is 0.535.

Question: What about the relative viability (NCI-H460; first compound 0.8 µM) of the same compound?
Answer: The relative viability was 0.595.

Question: And the relative viability (NCI-H460; first compound 2.53 µM)?
Answer: The relative viability was 0.66.

Question: What about the relative viability (NCI-H460; first compound 8 µM) of the same compound?
Answer: Its relative viability is 0.256.

Question: And the relative viability (NCI-H520; first compound 0.08 µM)?
Answer: The relative viability was 0.632.

Question: And the relative viability (NCI-H520; first compound 0.8 µM)?
Answer: The relative viability was 0.352.

Question: What about the relative viability (NCI-H520; first compound 2.53 µM) of the same compound?
Answer: Its relative viability is 0.742.

Question: What about the relative viability (NCI-H520; first compound 8 µM) of the same compound?
Answer: The relative viability was 0.338.

Question: And the relative viability (NCI-H650; first compound 0.08 µM)?
Answer: The relative viability was 0.436.

Question: What about the relative viability (NCI-H650; first compound 0.8 µM) of the same compound?
Answer: Its relative viability is 0.524.

Question: And the relative viability (NCI-H650; first compound 2.53 µM)?
Answer: The relative viability was 0.312.

Question: What about the relative viability (NCI-H650; first compound 8 µM) of the same compound?
Answer: Its relative viability is 0.44.

Question: What about the relative viability (NCI-H838; first compound 0.08 µM) of the same compound?
Answer: The relative viability was 0.641.

Question: What about the relative viability (NCI-H838; first compound 0.8 µM) of the same compound?
Answer: Its relative viability is 0.879.

Question: And the relative viability (NCI-H838; first compound 2.53 µM)?
Answer: The relative viability was 0.543.

Question: What about the relative viability (NCI-H838; first compound 8 µM) of the same compound?
Answer: Its relative viability is 0.516.

Question: What about the relative viability (PC-3 [JPC-3]; first compound 0.08 µM) of the same compound?
Answer: The relative viability was 0.475.

Question: And the relative viability (PC-3 [JPC-3]; first compound 0.8 µM)?
Answer: The relative viability was 0.476.

Question: What about the relative viability (PC-3 [JPC-3]; first compound 2.53 µM) of the same compound?
Answer: Its relative viability is 0.477.

Question: And the relative viability (PC-3 [JPC-3]; first compound 8 µM)?
Answer: Its relative viability is 0.477.

Question: And the relative viability (RERF-LC-KJ; first compound 0.08 µM)?
Answer: Its relative viability is 0.431.

Question: And the relative viability (RERF-LC-KJ; first compound 0.8 µM)?
Answer: Its relative viability is 0.461.

Question: What about the relative viability (RERF-LC-KJ; first compound 2.53 µM) of the same compound?
Answer: Its relative viability is 0.418.

Question: And the relative viability (RERF-LC-KJ; first compound 8 µM)?
Answer: The relative viability was 0.356.

Question: And the relative viability (SW 1573; first compound 0.08 µM)?
Answer: Its relative viability is 0.433.

Question: What about the relative viability (SW 1573; first compound 0.8 µM) of the same compound?
Answer: The relative viability was 0.366.

Question: What about the relative viability (SW 1573; first compound 2.53 µM) of the same compound?
Answer: Its relative viability is 0.479.

Question: And the relative viability (SW 1573; first compound 8 µM)?
Answer: Its relative viability is 0.376.

Reference: the supplement of paper PMC10307832
